Where “and” joins values, the source holds several entries; their conditions need not be identical. Equal values may be shown once.
target: SARS-CoV-2 Main Protease (SARS-CoV-2) (UniProt P0DTD1)

| Compound | IC50 |
| --- | --- |
| CCN(C)S(=O)(=O)N1Cc2ccc(Cl)cc2C2(CCN(c3cncc4ccccc34)C2=O)C1 (centres undefined) | 0.563 µM |
| Cn1nncc1C(=O)N(c1ccc(C(C)(C)C)cc1)C(C(=O)NCCc1cccc(F)c1)c1cccnc1 (centres undefined) | > 99.5 µM |
| CS(=O)(=O)Cc1ccc(N(C(=O)c2cnc[nH]2)C(C(=O)NCCc2cccc(F)c2)c2cccnc2)cc1 (centres undefined) | 41.1 µM |
| CCOC(=O)c1ncoc1CNC(=O)C(c1cccnc1)N(C(=O)c1cocn1)c1ccc(C(C)(C)C)cc1 (centres undefined) | 5.88 µM |
| O=C(NC1(C(=O)Nc2cncc3ccccc23)CCOc2ccc(Cl)cc21)C1CCC(C(=O)N2CCCC2)O1 (centres undefined) | 2.81 µM |
| CN(C)C(=O)CN1CCC(C(=O)Nc2cncc3ccccc23)c2cc(Cl)ccc21 (centres undefined) | 2.54 µM |
| Cc1cnc(Nc2cc(Cl)cc(CC(=O)Nc3cncc4ccccc34)c2)c([N+](=O)[O-])c1 | 1.86 µM |
| COc1cccc(CNc2cc(Cl)cc(CC(=O)Nc3cncc4ccccc34)c2)c1OC | 2.48 µM |
| CC(C)C[C@@H]1CN(C(=O)CCl)CCN1Cc1cccc(Cl)c1 (stereo in doubt) | 0.784 µM |
| O=C(Cc1cc(Cl)cc(-c2nnc[nH]2)c1)Nc1cncc2ccccc12 | 5.3 µM |
| COc1ccc(N(C(=O)c2ccco2)C(C(=O)NCCc2cccc(F)c2)c2cccnc2)cc1OCCO (centres undefined) | > 99.5 µM |
| CN1CCN(c2cncc3ccccc23)C(=O)C1c1cccc(Cl)c1 (centres undefined) | 2.21 µM |
| Nc1nn(C(=O)Cc2cccc(Cl)c2)c2ccc(F)cc12 | > 99.5 µM |
| O=C(O)[C@@H](c1ccccc1)N1Cc2ccccc2C1=O (stereo in doubt) | 1.78 µM |
| Cc1cc(Br)cc(Nc2cc(Cl)cc(CC(=O)Nc3cncc4ccccc34)c2)c1 | 1.96 µM |
| O=C(Cc1cc(Cl)cc(Nc2cccnc2Br)c1)Nc1cncc2ccccc12 | 2.08 µM |
| Cc1ccc2cccc(Nc3cc(Cl)cc(CC(=O)Nc4cncc5ccccc45)c3)c2n1 | 4.93 µM |
| CC(=O)NC(C(=O)Nc1cncc2ccccc12)c1ccc(Cl)c(Cl)c1 (centres undefined) | 4.05 µM |
| Cc1cnoc1C(=O)N(c1ccc(C(C)(C)C)cc1)C(C(=O)NCCc1cccc(F)c1)c1cccnc1 (centres undefined) | > 99.5 µM |
| O=C(Cc1cc(Cl)cc(Nc2cccc(Br)n2)c1)Nc1cncc2ccccc12 | 1.92 µM |
| C=CC(=O)N(c1ccc(C(C)(C)C)cc1)C(C(=O)NC)c1cccnc1 (centres undefined) | 35.7 µM |
| O=C(NNc1nc2ccccc2[nH]1)c1cc(O)nc2ccccc12 | 25.8 µM |
| CN(C)c1ccc(N(Cc2cccc(Cl)c2)C(=O)Cn2nnc3ccccc32)cc1 | 0.497 µM |
| O=C(Cc1cccc(Cl)c1)Nc1cncc2c(Cl)cccc12 | > 99.5 µM |
| O=C(NCCc1cccc(F)c1)C(c1cccnc1)N(Cc1ccccc1)C(=O)c1cnc[nH]1 (centres undefined) | > 99 µM |

| Compound | IC50 |
| --- | --- |
| COc1ccc(CC(=O)Nc2cncc3ccccc23)cc1 | 72.5 µM |
| COc1cc(Nc2cc(Cl)cc(CC(=O)Nc3cncc4ccccc34)c2)nc(OC)n1 | 2.21 µM |
| CC(C)(C)c1ccc(N(C(=O)c2cocn2)C(C(=O)N2CCC(c3cccc(F)c3)CC2)c2cccnc2)cc1 (centres undefined) | 9.46 µM |
| COC(=O)C(C)NC(=O)C(c1cccnc1)N(C(=O)c1cocn1)c1ccc(C(C)(C)C)cc1 (centres undefined) | 7.18 µM |
| O=C(CCl)Nc1nc2c(S(=O)(=O)NCCc3ccccc3)cccc2s1 | 5.03 µM and 14.2 µM and 37.5 µM |
| O=C(NCCc1cccc(F)c1)C(c1cccnc1)N(C(=O)c1ccco1)C1CCCC(c2ccc(F)c(F)c2)C1 (centres undefined) | > 99.5 µM |
| Cc1ccncc1N1CCC(c2cccc(Cl)c2)C1=O (centres undefined) | 44.7 µM |
| C[C@H](N)C(=O)N[C@@H](CCC(N)=O)C(=O)O (stereo in doubt) | > 99 µM |
| O=C1N(c2cncc3ccccc23)CCC12CN(S(=O)(=O)CC1(C(F)F)CC1)Cc1ccc(Cl)cc12 (centres undefined) | 0.155 µM |
| O=C(CN1CC(C(=O)Nc2cncc3cc(F)ccc23)c2cc(Cl)ccc2C1=O)NC1CC1 (centres undefined) | 0.556 µM |
| CC(=O)N(CC(=O)Nc1ccc(F)c(Cl)c1)c1cccc(Cl)c1 | > 99.5 µM |
| O=c1[nH]c(-c2nnc[nH]2)nc2cc(-c3ccccc3Cl)sc12 | > 99.5 µM |
| CC(NCc1cnc2ccccn12)c1nnc2ccccn12 (centres undefined) | > 99.5 µM |
| O=C(Nc1ccc2nccnc2c1)c1csc2cncn12 | > 99.5 µM |
| O=C(CN1CC(C(=O)Nc2cncc3ccccc23)c2cc(Cl)ccc2C1=O)NCC1CCC1 (centres undefined) | 0.107 µM |
| CC(=O)N(CC(=O)Nc1ccc(F)c(Cl)c1)c1cccc(C(F)(F)F)c1 | > 99.5 µM |
| O=C(Cc1cc(Cl)cc(Nc2cnc(Cl)c(Br)c2)c1)Nc1cncc2ccccc12 | 3.08 µM |
| O=S(=O)(Nc1cc2c(cc1OCc1ccccc1)OCO2)c1ccccc1 | > 99.5 µM |
| COC(=O)C(C)(CN(C(=O)c1ccco1)C(C(=O)NCCc1cccc(F)c1)c1cccnc1)c1ccccc1F (centres undefined) | > 99.5 µM |
| COC(=O)[C@H]1C[C@@H](NC(=O)C(c2cccnc2)N(C(=O)c2cocn2)c2ccc(C(C)(C)C)cc2)CN1C(=O)OC(C)(C)C (stereo in doubt) | 5.32 µM |
| CN(C)CCCOc1ccc2cncc(N3CCC4(CN(S(=O)(=O)CC5(C#N)CC5)Cc5ccc(Cl)cc54)C3=O)c2c1 (centres undefined) | 0.149 µM |
| CC(C)CCN1C(=O)C(=O)c2cc(Br)ccc21 | > 99.5 µM |
| COc1ccc2c(NC(=O)Cc3cccc(Cl)c3)[nH]nc2c1 | > 99.5 µM |
| CCOc1c(Cl)cccc1CC(=O)Nc1cncc2ccccc12 | 6.96 µM |
